Measured values reported in ChEMBL document CHEMBL4834450, “Design, synthesis and antimicrobial activity of novel 2-aminothiophene containing cyclic and heterocyclic moieties” (2021).

Legend:
Format in all cases: functional
Details in all cases: read-out: DIZ
Candida albicans = assay: Antifungal activity against Candida albicans MTCC227 at 5 ug/ml
[1] = tested on: Syncephalastrum racemosum; assay: Antifungal activity against Syncephalastrum racemosum RCMB05922 at 5 ug/ml
Pseudomonas aeruginosa = assay: Antibacterial activity against Pseudomonas aeruginosa MTCC441 at 5 ug/ml
Streptococcus pneumoniae = assay: Antibacterial activity against Streptococcus pneumoniae ATCC49619 at 5 ug/ml
Aspergillus fumigatus = assay: Antifungal activity against Aspergillus fumigatus HIC6094 at 5 ug/ml
Bacillus subtilis = assay: Antibacterial activity against Bacillis subtilis BS-GA28 at 5 ug/ml
Escherichia coli = assay: Antibacterial activity against Escherichia coli MTCC442 at 5 ug/ml
Geotrichum candidum = assay: Antifungal activity against Geotrichum candidum RCMB05097 at 5 ug/ml

Row | SMILES | zone of inhibition at 5 µg/mL (Candida albicans) [mm] | zone of inhibition at 5 µg/mL [1] [mm] | zone of inhibition at 5 µg/mL (Pseudomonas aeruginosa) [mm] | zone of inhibition at 5 µg/mL (Streptococcus pneumoniae) [mm] | zone of inhibition at 5 µg/mL (Aspergillus fumigatus) [mm] | zone of inhibition at 5 µg/mL (Bacillus subtilis) [mm] | zone of inhibition at 5 µg/mL (Escherichia coli) [mm] | zone of inhibition at 5 µg/mL (Geotrichum candidum) [mm]
1 | CCOC(=O)c1c(Nc2ccccc2)sc(C(=O)c2cn(-c3ccc(Cl)cc3)nc2C(C)=O)c1-c1ccccc1 | 14.3 | 14.8 | 10.2 | 14.6 | 16.3 | 14.3 | 8.8 | 15.3
2 | CCOC(=O)c1c(Nc2ccccc2)sc(-c2ccnc(N)n2)c1-c1ccccc1 | 18.2 | 13.7 | 11.4 | 16.3 | 18.2 | 19.1 | 10.7 | 19.1
3 | CCOC(=O)c1c(Nc2ccccc2)sc(C(=O)/C=C/c2ccc(O)cc2)c1-c1ccccc1 | 13.3 | 11.2 | 18.7 | 26.7 | 15.7 | 21.4 | 19.5 | 17.3
4 | CCOC(=O)c1c(Nc2ccccc2)sc(C(=O)/C=C/c2cccc(N(C)C)c2)c1-c1ccccc1 | 14.3 | 24.5 | 12.5 | 16.3 | 24.3 | 19.6 | 14.8 | 25.8
5 | CCOC(=O)c1c(Nc2ccccc2)sc(-c2ccn(-c3ccccc3)n2)c1-c1ccccc1 | 15.8 | 18.9 | 11.6 | 12.3 | 15.9 | 12.7 | 10.9 | 19.1
6 | CCOC(=O)c1c(Nc2ccccc2)sc(C(=O)/C=C\Nc2ccc([N+](=O)[O-])cc2)c1-c1ccccc1 | 10.9 | 16.5 | 12.3 | 19.5 | 12.6 | 29.8 | 18.8 | 25.8
7 | CCOC(=O)c1c(Nc2ccccc2)sc(C(=O)/C=C/c2ccc(OC)cc2)c1-c1ccccc1 | 11.9 | 16.1 | 11.4 | 18.9 | 23.4 | 17.9 | 10.2 | 10.8
8 | CCOC(=O)c1c(Nc2ccccc2)sc(-c2ccnc(S)n2)c1-c1ccccc1 | 12.7 | 16.6 | 9.8 | 12.3 | 15.7 | 12.7 | 11.3 | 12.6
9 | CCOC(=O)c1c(Nc2ccccc2)sc(C(=O)c2cn(-c3ccc(C)cc3)nc2C(C)=O)c1-c1ccccc1 | 12.7 | 16.6 | 9.8 | 12.3 | 15.7 | 12.7 | 11.3 | 12.6
10 | CCOC(=O)c1c(Nc2ccccc2)sc(-c2ccnc(O)n2)c1-c1ccccc1 | 18.2 | 13.7 | 11.4 | 16.3 | 18.2 | 19.1 | 10.7 | 19.1
11 | CCOC(=O)c1c(Nc2ccccc2)sc(C(=O)/C=C/c2ccc(Cl)cc2)c1-c1ccccc1 | 12.3 | 16.5 | 12.3 | 19.5 | 22.3 | 29.8 | 17.6 | 25.8
12 | C[C@@H]1[C@H](O)[C@@H](C)/C=C/C=C/C=C/C=C/C=C/C=C/C=C/[C@H](O[C@@H]2O[C@H](C)[C@@H](O)[C@H](N)[C@@H]2O)C[C@@H]2O[C@](O)(C[C@@H](O)C[C@@H](O)[C@H](O)CC[C@@H](O)C[C@@H](O)CC(=O)O[C@H]1C)C[C@H](O)[C@H]2C(=O)O [AMPHOTERICIN B] | 25.4 | 19.7 | – | – | 23.7 | – | – | 28.7
13 | CC1(C)S[C@@H]2[C@H](NC(=O)[C@H](N)c3ccccc3)C(=O)N2[C@H]1C(=O)O [AMPICILLIN] | – | – | – | 23.8 | – | 32.4 | – | –
14 | CCOC(=O)c1ccc(-c2sc(Nc3ccccc3)c(C(=O)OCC)c2-c2ccccc2)nc1C | 11.2 | 20.9 | 10.8 | 18.2 | 26.3 | 18.9 | 11.1 | 12.6
15 | CCOC(=O)c1c(Nc2ccccc2)sc(-c2ccn(-c3ccc(Cl)cc3)n2)c1-c1ccccc1 | 11.2 | 20.9 | 10.8 | 18.2 | 26.3 | 18.9 | 11.1 | 12.6
16 | CCOC(=O)c1c(Nc2ccccc2)sc(C(=O)/C=C/c2ccc(Cl)c(Cl)c2)c1-c1ccccc1 | 13.2 | 15.4 | 9.7 | 11.3 | 17.7 | 10.7 | 8.9 | 12.9
17 | CCOC(=O)c1c(Nc2ccccc2)sc(C(=O)/C=C/c2ccc([N+](=O)[O-])cc2[N+](=O)[O-])c1-c1ccccc1 | 13.4 | 19.6 | 11.3 | 16.5 | 18.9 | 18.9 | 9.9 | 14.8
